Assays:
Format in all cases: cell-based, human
NOX [1] = test system: T1, NOX; assay: Amplex Red measurement of NOX activity (extracellular hydrogen peroxide) in DMSO-differentiated HL60 cells; settings: DPI 10 μM, NOX activity as % of the activity in control cells, 'usually'
T1 construct: rows headed: Residual activity of DPI-treated cells; other: Amplex Red; DPI 10 μM; NOX activity as % of the activity in control cell
Experimental: Human acute myeloid leukemia cell line HL-60 was cultured in RPMI 1640 (Invitrogen) supplemented with 10% heat-inactivated calf serum, 2 mM glutamine, 100 U/mL penicillin (Sigma), and 100 μg streptomycin (Sigma) at 37° C. under a humidified atmosphere of 5% CO2. HL60 differentiation to the neutrophil phenotype was triggered by adding Me2SO (final concentration 1.25% v/v for 6 days) to the culture medium.
Extracellular hydrogen peroxide was measured using Amplex UltraRed (Molecular Probes). Cells were trypsinized (1× Trypsin-EDTA), collected by centrifugation, and resuspended in HBSS supplemented with 1% glucose. Cells were seeded into black 96-well plates at a density of 50′000 cells in 200 μl testing buffer (HBSS 1% glucose containing 0.005 U/mL horseradish peroxidase (Roche) and 50 μM Amplex Red in the presence or absence of compounds according to the invention. As a control, DPI was included at a final concentration of 10 μM The plates were placed in the fluorescent Optima Fluorescent plate reader and kept at 37° C. during 20 min. Fluorescence was measured for […] with excitation and emission wavelengths of 544 nm and 590 nm respectively. NOX activities were expressed as % of the activity in control cells. […]
The Table 2 below summarizes the percentage of inhibition of NOX activity as measured by Amplex Red using DMSO-differentiated HL60 cells as described above: […]

NOX [2] = assay: Nitroblue tetrazolium (NBT) test of intracellular and extracellular superoxide in cells; settings: DPI 10 μM, NOX activity as % of the activity in control cells, 'usually'
Experimental: Intracellular and extracellular superoxide was measured by a colorimetric technique using a quantitative nitroblue tetrazolium (NBT) test. SOD-inhibitable conversion of NBT to formazan, a fine blue precipitate, in the presence of superoxide anion was measured using Fluostar Optima spectrometer (BMG labtech). Following incubation with appropriate stimuli, cells were trypsinized (1× Trypsin-EDTA), collected by centrifugation, and washed with PBS to remove medium. 5×10^5 cells were plated on 48-well plates and incubated in Hank's balanced salt solution containing 0.5 mg/mL NBT with or without 800 U/mL SOD in the presence or absence of compounds according to the invention. As a control, DPI was included at a final concentration of 10 μM. After 2.5 h, cells were fixed and washed with methanol to remove non reduced NBT. The reduced formazan was then dissolved in 230 μl of 2M potassium hydroxide and in 280 μl of dimethylsulfoxide. The absorption was measured at 630 nm. For calculation, the absorbance at 630 nm was normalized for each individual well. The mean of the four blank values was subtracted from each corrected value for each time point. NOX activities were expressed as % of the activity in control cells. Residual activity of DPI-treated cells was usually <10%.

NOX [3] = assay: Chemiluminescence (luminol) measurement of ROS in cells; settings: NOX activity as % of the activity in control cells, 'usually'
Experimental: ROS was measured using the chemiluminescent probe luminol. Cells were cultured and plated as for Amplex Red except that the Amplex Red agent was replaced by 10 μg/mL luminol (Sigma 09235). Light emission was recorded continuously at 37° C. for 60 minutes using the luminescence function of the FluoStar Optima fluorescent plate reader. The mean of the four blank values was subtracted from each corrected value for each time point. NOX activities were expressed as % of the activity in control cells. Residual activity of DPI-treated cells was usually <10%.

NOX [4] = test system: T2, NOX; assay: H2DCF-DA (DCF fluorescence) in HUVEC stimulated with TGF-β; settings: NOX activity as % of the activity in control cells, 'usually'
T2 construct: rows headed: Residual activity of DPI-treated cells; other: H2DCF-DA, HUVEC + TGF-β; NOX activity as % of the activity in control ce
Experimental: HUVEC are cultured in endothelial basal medium supplemented with hydrocortisone (1 μg/mL, CalbioChem), bovine brain extract (12 μg/mL), gentamicin (50 μg/mL, CalbioChem), amphotericin B (50 ng/mL, CalBioChem EGF (10 ng/mL, and 10% FCS until the fourth passage. When the fifth passage was started, cells were cultured with a lower concentration of FCS (2%) in the absence of EGF, if not indicated otherwise. All experiments were done with cells of the fifth passage. The cells were incubated with OxLDL (oxidized low-density lipoprotein) or its buffer as control for 24 h, before detection of O2^− formation.
HUVEC were plated on coverslips and made quiescent overnight in 0.5% BSA before stimulation with TGF-β. Cells were loaded for 10 minutes with 5 μM CM-H2DCFDA in phenol-red-free medium in the dark and then treated with TGF-β (R&D Systems) in the presence or absence of compounds according to the invention. Cells were then visualized by immunofluorescence microscopy after fixation and staining of the nuclei with DAPI or examined live using confocal microscopy. DCF fluorescence was visualized at an excitation wavelength of 488 nm and emission at 515 to 540 nm. […] For calculation, the absorbance at […] was normalized to absorbance at […] for each individual well. […] NOX activities were expressed as % of the activity in control cells. […]

Measured: Residual activity of DPI-treated cells

c1ccc([I+]c2ccccc2)cc1 [DPI, Diphenyl-iodonium]
< 10%: all assays above

From patent publication US8748456B2, “Pyrazolo piperidine derivatives as NADPH oxidase inhibitors” (Genkyotex SA, priority 2010, dated 2014)
